Tested on: OCI-AML2 xenografts
Test: OCI-AML2 xenograft efficacy (tumor volume, body weight)
Conditions: for Tumor Volume Day 14, Mean / Tumor Volume Day 14, Median / % T/C (mean), Tumor Volume Day 14 / % T/C (median), Tumor Volume Day 14: Day 14 (measure date = dosing begin); for Tumor Volume Day 14, Mean / Tumor Volume Day 18, Mean / Tumor Volume Day 21, Mean: group mean of 8 mice; for Tumor Volume Day 14, Median / Tumor Volume Day 18, Median / Tumor Volume Day 21, Median: group median of 8 mice; for % T/C (mean), Tumor Volume Day 14 / % T/C (median), Tumor Volume Day 14 / % T/C (mean), Tumor Volume Day 18 / % T/C (median), Tumor Volume Day 18 / % T/C (mean), Tumor Volume Day 21 / % T/C (median), Tumor Volume Day 21: control Group 01; for % T/C (mean), Tumor Volume Day 25: mean(T)/mean(C) vs Group 01 (0 mg/kg); for % T/C (median), Tumor Volume Day 25: median(T)/median(C) vs Group 01 (0 mg/kg); for % Mortality: OCI-AML-2 (DSMZ) xenograft, SCID-beige mouse, F
[1] = ABBV-467 […] Q7Dx3 IV, Venetoclax 25 mg/kg QDx14 PO, 5-Aza 8 mg/kg Q7Dx3 IV
[2] = Venetoclax 25 mg/kg QDx14 PO, 5-Aza 8 mg/kg Q7Dx3 IV
[3] = group mean, n=8, ABBV-467 […] Q7Dx3 IV, Venetoclax 25 mg/kg QDx14 PO, 5-Aza 8 mg/kg Q7Dx3 IV
[4] = group median, n=8, ABBV-467 […] Q7Dx3 IV, Venetoclax 25 mg/kg QDx14 PO, 5-Aza 8 mg/kg Q7Dx3 IV

Procedure: All animal studies were conducted in accordance with the guidelines approved by the Institutional Animal Care and Use Committees of AbbVie. The research protocol was approved by In Vivo Pharmacology at AbbVie prior to study initiation but was not publicly registered or disclosed. Female C.B-17 SCID-beige mice (AMO-1, OPM-2, NCI-H929, and OCI-AML2 xenografts) and female NSG mice (MV4-11-Red.Fluc systemic) were purchased from Charles River Laboratories (Wilmington, MA). Animals were housed in a light cycle-controlled room with HEPA filtration at 22 °C. Animals had nesting and climbing cage topper as the primary environmental enrichment. Animals were inoculated subcutaneously in the right flank with 5 × 10^6 (AMO-1, OPM-2, NCI-H929, and OCI-AML2) or intravenous (IV) with 5 × 10^6 (MV4-11-Red.Fluc). The inoculation volume (0.2 mL) comprised a 50:50 mixture of cells in growth media and Matrigel (BD Biosciences) for subcutaneous injections and 100% phosphate-buffered saline for IV administration. […] Electronic calipers were used to measure the length and width of each tumor 2 to 3 times per week. Tumor volume was estimated by applying the following equation: volume = length × width^2/2. All groups remained blinded during measurements and dosing; only veterinary staff were aware of group identity. When tumors reached approximately 200 mm^3, mice were randomized by match and distributed into treatment and control groups. All xenograft trials were conducted using 5 to 10 mice per group, and all mice were ear tagged and monitored individually throughout the studies.
For combination studies, all compounds were administered within 30 min of each other.
The tumor growth delay (TGD) percentage was determined as the percentage increase of the median time period for the treatment group to reach an arbitrary tumor volume of 1000 mm^3 relative to the vehicle control group. […] A power analysis was conducted using historical data to determine the number of animals required to yield significance of 0.05 at a 30% difference. There were no animals excluded. Data from experiments in vivo were analyzed using the student’s t-test for TGI values and the Mann–Whitney U test for TGD using Excel and GraphPad Prism. Fisher’s exact test was used to probe significance of differences in response frequency.

SMILES | Tumor Volume Day 14, Mean [1] [mm³] | Tumor Volume Day 14, Median [1] [mm³] | % T/C (mean), Tumor Volume Day 14 [1] [%] | % T/C (median), Tumor Volume Day 14 [1] [%] | Tumor Volume Day 18, Mean [1] [mm³] | Tumor Volume Day 18, Median [1] [mm³] | % T/C (mean), Tumor Volume Day 18 [1] [%] | % T/C (median), Tumor Volume Day 18 [1] [%] | Tumor Volume Day 21, Mean [1] [mm³] | Tumor Volume Day 21, Median [1] [mm³] | % T/C (mean), Tumor Volume Day 21 [1] [%] | % T/C (median), Tumor Volume Day 21 [1] [%] | Mortality Observation Day 25 (individual animals) [2] | Tumor Volume (mm³) Day 25, Mean [3] [mm³] | Tumor Volume (mm³) Day 25, Median [4] [mm³] | % T/C (mean), Tumor Volume Day 25 [1] [%] | % T/C (median), Tumor Volume Day 25 [1] [%] | also measured
Nc1ncn([C@@H]2O[C@H](CO)[C@@H](O)[C@H]2O)c(=O)n1 [5-azacitidine, reference compound] | – | – | – | – | – | – | – | – | – | – | – | – | – | – | – | – | – | effect on OCI-AML2 xenograft growth (venetoclax 25 mg/kg QD × 14, azacitidine 8 mg/kg Q7D × 3, or the combination of both): no meaningful effect
Nc1ncn([C@@H]2O[C@H](CO)[C@@H](O)[C@H]2O)c(=O)n1 [A-37426.0 (5-Aza)] | 204.71 | 196.98 | 99.83 | 103.17 | 420.77 | 428.51 | 80.49 | 74.19 | 806.97 | 777.56 | 88.35 | 78.44 | EUTV | 1474.66 | 1414.73 | 76.12 | 72.28 | % Mortality (Group 04, 8 mg/kg IV Q7Dx3): 100.00%
CC1(C)CCC(CN2CCN(c3ccc(C(=O)NS(=O)(=O)c4ccc(NCC5CCOCC5)c([N+](=O)[O-])c4)c(Oc4cnc5[nH]ccc5c4)c3)CC2)=C(c2ccc(Cl)cc2)C1 [A-1195425.0 (Venetoclax)] | 204.64 | 193.77 | 99.79 | 101.49 | 437.16 | 415.67 | 83.63 | 71.96 | 934.07 | 1005.20 | 102.27 | 101.40 | EUTV | 1624.63 | 1781.81 | 83.87 | 91.03 | % Mortality (Group 03, 25 mg/kg PO QDx14): 100.00%
Cc1c(Cl)c2c(Cl)c(C)c1-c1c(-c3ccc(F)cc3)sc3ncnc(c13)O[C@@H](C(=O)O)Cc1cc(ccc1OCc1ccnc(-c3ccc(OC[C@H]4COCCO4)cc3)n1)OC[C@@H](CN1CCN(C)CC1)O2 [A-1747745.0 (ABBV-467, MCL-1i)] | 205.07 | 194.10 | 100.01 | 101.66 | 319.69 | 302.00 | 61.16 | 52.29 | 701.23 | 681.22 | 76.77 | 68.72 | – | 978.87 | 1025.66 | 50.53 | 52.40 | Mortality Observation Day 28 (individual animals) (Day 28, ABBV-467 […] Q7Dx3 IV, Venetoclax 25 mg/kg QDx14 PO, 5-Aza 8 mg/kg Q7Dx3 IV): EUTV; Tumor Volume (mm³) Day 28, Mean (Day 28, group mean, n=8, ABBV-467 […] Q7Dx3 IV, Venetoclax 25 mg/kg QDx14 PO, 5-Aza 8 mg/kg Q7Dx3 IV): 1642.98 mm³; Tumor Volume (mm³) Day 28, Median (Day 28, group median, n=8, ABBV-467 […] Q7Dx3 IV, Venetoclax 25 mg/kg QDx14 PO, 5-Aza 8 mg/kg Q7Dx3 IV): 1495.57 mm³
